Reference: patent US20180344639A1, “HYPOXIA-TARGETED POLYMERIC MICELLES FOR CANCER THERAPY AND IMAGING” (priority 2012, published 2018)

How the values were obtained:
[1] = Encapsulation efficiency of drug in PMC of Example I by dialysis and UV/Vis absorbance; assay type: physicochemical; conditions: PMC from Example I; dialysis 10,000 MWCO; tris buffer (pH 7.4) given for Drug A only
Method: (§1) The polymer is dissolved in deionized water or an aqueous buffer at a concentration of 0.010 g/mL. Drugs A is dissolved in DMSO at a concentration of 5 μg/μl. Drug A is added dropwise to the polymer solution with constant stirring at room temperature. The drugs are added over the course of 60 minutes resulting in a 2-5 fold molar excess over polymer. The solution is centrifuged to remove any precipitates and transferred to dialysis tubing with 10,000 MWCO. The solution is dialyzed against an aqueous buffer (50× volume) for 30 minutes.
(§2) The absorbance of the polymer-drug solution and dialysis buffer are recorded and compared to respective pre-dialysis samples by a UV/Vis spectrophotometer (polymer absorbance=280 nm; Drug A absorbance=450 nm). The encapsulation efficiency is calculated from the change in absorbance of the drug after this initial dialysis. The polymer-drug solution is dialyzed further with fresh buffer (50× volume) with multiple readings over the course of 72 hours with 4 buffer changes. The rate at which the drug is released from the polymeric micelle is calculated by the change in absorbance of the drug over time from the polymer-drug solution and dialysis buffer.
(§3) Encapsulation of Drug B is carried out by the same dialysis procedure as described in Example III for Drug A. Drug B is dissolved in DMSO to a stock solution of 2.5 mg/ml. […]

[2] = Release of drug from the polymeric micelle during dialysis, by change in absorbance; assay type: physicochemical; conditions: PMC from Example I; 24 hours dialysis; tris buffer (pH 7.4) given for Drug A only
Method: as §1, §2, §3

Question: Which Encapsulation efficiency [1] does the source give for `CCCNC(=O)c1c(C)[nH]c(/C=C2\C(=O)Nc3ccc(F)cc32)c1C` [Drug A] here?
Answer: greater than 80%

Question: And the drug released [2]?
Answer: 50%
